The nature of data set [1]: Selectivity index, ratio of IC50 for human NFF to IC50 for chloroquine-sensitive Plasmodium falciparum 3D7.
The test system of data set [2] is Plasmodium falciparum. In words: Antimalarial activity against chloroquine-sensitive Plasmodium falciparum 3D7 assessed as [3H]-hypoxanthine incorporation after 48 hrs by liquid scintillation counting analysis. In kind it is functional, organism-based.
The subject of data set [3] is Plasmodium falciparum. Put plainly: Antimalarial activity against chloroquine and mefloquine-resistant Plasmodium falciparum Dd2 assessed as [3H]-hypoxanthine incorporation after 48 hrs by liquid scintillation counting analysis. In kind it is functional.
For the next data set, the system named is NFF. Put plainly: Cytotoxicity against human NFF after 72 hrs by SRB assay. In kind it is cell-based. (In SRB staining, fixed cells bind dye roughly in proportion to their protein.)
The nature of data set [4]: Selectivity index, ratio of IC50 for human NFF to IC50 for chloroquine and mefloquine-resistant Plasmodium falciparum Dd2.
A short description of data set [5]: Solubility of the compound in phosphate buffered saline under acidic condition. In kind it is physicochemical. The settings on record: buffer.
Data set [6] deals with Plasmodium falciparum. In words: Antimalarial activity against chloroquine and mefloquine-resistant Plasmodium falciparum Dd2 assessed as growth inhibition. Format: functional.
Data set [7] concerns Mus musculus. In words: Toxicity in Swiss mouse assessed as whole body tremor at 8 mg/kg administered for 4 days measured after 1 to 2 hrs of each dose. In kind it is organism-based. More on the design: dose 8 mg/kg. The settings on record: in vivo.
A short description of data set [8]: Intrinsic clearance in mouse liver microsomes at 1 uM after 60 mins by LC-MS/MS analysis. Format: ADME, Microsome. The following applies: read-out: CLH. On the technique in general: Microsomes from liver hold many membrane-bound enzymes, among them those of drug oxidation.
Data set [9] is described as follows: Intrinsic clearance in human liver microsomes at 1 uM after 60 mins by LC-MS/MS analysis. In kind it is ADME. The settings on record: read-out: CLH.
In data set [10] the test system is Mus musculus. In words: Toxicity in Swiss mouse assessed as ruffled coat at 8 mg/kg administered for 4 days. Details: dose 8 mg/kg. The settings on record: in vivo, 96 h. Format: organism-based.
Data set [11] deals with Mus musculus. Put plainly: Toxicity in Swiss mouse assessed as lethargy at 16 mg/kg measured up to 2 hrs post compound administration. Format: organism-based. Details: dose 16 mg/kg. The settings on record: in vivo.
For data set [12], the system named is Mus musculus. Put plainly: Toxicity in Swiss mouse assessed as whole body tremor at 16 mg/kg measured up to 2 hrs post compound administration. More on the design: dose 16 mg/kg. The settings on record: in vivo. Format: organism-based.
Data set [13] is described as follows: Solubility of the compound in phosphate buffered saline under neutral condition. The settings on record: buffer. Format: physicochemical.
For data set [14], the system named is Mus musculus. In words: Toxicity in Swiss mouse assessed as ruffled coat at 16 mg/kg measured up to 2 hrs post compound administration. In kind it is organism-based. Details: dose 16 mg/kg. The settings on record: in vivo.
Data set [15] in a line: Half life in mouse liver microsomes at 1 uM after 60 mins by LC-MS/MS analysis. Format: ADME, Microsome.
Data set [16] is described as follows: Selectivity ratio of IC50 for chloroquine-sensitive Plasmodium falciparum 3D7 to IC50 for chloroquine and mefloquine-resistant Plasmodium falciparum Dd2. Format: functional.
For data set [17], the system named is Plasmodium falciparum. Put plainly: Antimalarial activity against chloroquine-sensitive Plasmodium falciparum 3D7 assessed as growth inhibition. Format: functional, organism-based.
Data set [18] is described as follows: Half life in human liver microsomes at 1 uM after 60 mins by LC-MS/MS analysis. In kind it is ADME.
Data set [19] deals with Mus musculus. In words: Toxicity in Swiss mouse assessed as panting at 4 to 8 mg/kg measured up to 15 mins post compound administration. Details: dose 4-8 mg/kg. Format: organism-based. The settings on record: in vivo, 0.25 h.
Data set [20] relates to Mus musculus. Put plainly: Toxicity in Swiss mouse assessed as whole body tremor at 4 to 8 mg/kg measured up to 15 mins post compound administration. The settings on record: in vivo, 0.25 h. In kind it is organism-based. More on the design: dose 4-8 mg/kg.
Data set [21] relates to Mus musculus. Put plainly: Toxicity in Swiss mouse assessed as difficulty in movement at 4 to 8 mg/kg. Details: dose 4-8 mg/kg. The following applies: in vivo. Format: organism-based.
For data set [22], the system named is Mus musculus. In words: Toxicity in Swiss mouse assessed as swollen conjuctiva of eyes at 4 to 8 mg/kg. Details: dose 4-8 mg/kg. In kind it is organism-based. The following applies: in vivo.
Data set [23] relates to Mus musculus. In words: Toxicity in Swiss mouse assessed as orange urine at 4 to 8 mg/kg. In kind it is organism-based. More on the design: dose 4-8 mg/kg. The following applies: in vivo.
Data set [24] relates to Mus musculus. In words: Toxicity in Swiss mouse assessed as whole body tremor at 4 to 8 mg/kg. Format: organism-based. The settings on record: in vivo. Details: dose 4-8 mg/kg.

As a reminder, the IC50 is the concentration that inhibits the measured activity by half. Broadly, the half-life is the time needed for the level to fall by half in the phase considered. A low value points to rapid decline.

On to `Cn1cc(CCN)c2c1C(=O)C1=C(NC=CS1(=O)=O)C2=O`, for which the results for the Ratio IC50 in [1] and in data set [4] were 32 and 81, respectively. In addition, the IC50 turned out to be 0.416 µM in the data set on Plasmodium falciparum [2], 0.162 µM in the data set with Plasmodium falciparum [3] and 13.2 µM with NFF.
Regarding `Cl.NCCc1c[nH]c2c1C(=O)C1=C(NC=CS1(=O)=O)C2=O`, the Ratio IC50 is 14 in [1], 60 in data set [4] and 4.3 in data set [16]. The solubility entry in [5] and in [13] was “soluble” throughout. Besides, the IC50 with Plasmodium falciparum [6] amounted to 0.0066 µM; with Plasmodium falciparum [2] it was 0.104 µM; with Plasmodium falciparum [3], 0.024 µM; with NFF it was 1.5 µM; in the data set on Plasmodium falciparum [17] it was 0.051 µM. Further, the Activity entry in the data set with Mus musculus [7], with Mus musculus [10], with Mus musculus [11], in the data set on Mus musculus [12] and in the data set with Mus musculus [14] was “Toxic” throughout. The figures for the microsomal CLint at 1 µM in data set [8] and in data set [9] were 68 µL/min/mg and 46 µL/min/mg, respectively. In addition, the values for the half-life at 1 µM in data set [15] and in [18] were 0.417 h and 0.617 h, respectively.
For the compound `Cl.Cn1cc(CCN)c2c1C(=O)C1=C(C2=O)S(=O)(=O)C=CN1`, the figures for the Ratio IC50 in data set [1], in [4] and in data set [16] were 18, 40 and 1.7, respectively. In addition, the solubility result in [5] and in data set [13] was “soluble” each time. Further, the microsomal CLint at 1 µM in data set [8] and in [9] was less than 7 µL/min/mg in each case. The IC50 with Plasmodium falciparum [2] came out at 0.128 µM; with Plasmodium falciparum [3] it was 0.057 µM; in the data set on NFF, 2.31 µM. The Activity result in the data set with Mus musculus [19] and in the data set on Mus musculus [20] was “Toxic” each time. Also, the half-life at 1 µM in [15] and in data set [18] was greater than 4.17 h throughout.
`CNCCc1c[nH]c2c1C(=O)C1=C(NC=CS1(=O)=O)C2=O.Cl`: the Ratio IC50 came out at 9 in data set [1], 31 in [4] and 3.4 in [16]. The solubility entry in [5] and in data set [13] was “soluble” throughout. In addition, the figures for the microsomal CLint at 1 µM in data set [8] and in [9] were 11 µL/min/mg and 17 µL/min/mg, respectively. Also, the IC50 in the data set with Plasmodium falciparum [2] turned out to be 0.16 µM; with Plasmodium falciparum [3] it was 0.047 µM; in the data set on NFF, 1.48 µM. Moreover, the half-life at 1 µM stood at 2.52 h in [15] and 1.67 h in data set [18].
As to `CNCCc1cn(C)c2c1C(=O)C1=C(NC=CS1(=O)=O)C2=O.Cl`, the Ratio IC50 in data set [1] stood at 17; in data set [4], 29; in data set [16], 1.7. The Activity result in the data set on Mus musculus [21], in the data set with Mus musculus [22], with Mus musculus [23] and in the data set on Mus musculus [24] was “Toxic” throughout. Moreover, the solubility result in data set [5] and in data set [13] was “soluble” throughout. In addition, the microsomal CLint at 1 µM in [8] and in [9] was less than 7 µL/min/mg each time. Further, the IC50 turned out to be 0.137 µM in the data set on Plasmodium falciparum [2], 0.079 µM in the data set with Plasmodium falciparum [3] and 2.31 µM with NFF. Moreover, the half-life at 1 µM in data set [15] and in data set [18] was greater than 4.17 h throughout.
The compound `CCN(CC)CCCC(C)Nc1ccnc2cc(Cl)ccc12` (configuration not stated) [CHLOROQUINE] registered an IC50 in the data set on NFF of 45.9 µM.

Values taken from ChEMBL document CHEMBL3112478, “Total synthesis of thiaplakortone a: derivatives as metabolically stable leads for the treatment of malaria” (ACS Med Chem Lett, 2014).
